# Assays:
# human β1 or β2 receptors = assay: Inverse agonist activity: inhibition of basal adenylyl cyclase activity (cAMP generation) in Sf9 membranes; format: biochemical; conditions: concentration 10×Ki for the β2 receptor
# Description: Sf9 cells were transfected with a baculovirus expression system coding for human β1 or β2 receptors as described in Chidiac et al., Molec.
# Adenylyl cyclase activity of Sf9 membranes was measured as described in Chidiac et al., Molec. […] The inhibition of basal cAMP generation in this system is a measure of inverse agonism.
# [1] = tested on: β1, β2 and α1 adrenergic receptors; conditions: Yoshikawa et al., Eur. Heart J. 1996; cited from earlier work
compound,measurement,setting,value
CC(C)(Cc1c[nH]c2ccccc12)NCC(O)COc1ccccc1C#N (centres unmarked) [bucindolol],rank order of inverse agonist activity (FIG. 1B),human β1 or β2 receptors,metoprolol>propranolol≥carvedilol>xamoterol>bucindolol
same,adrenergic receptor subtype selectivity / rank order of potency,[1],nonselective for β1 and β2 adrenergic receptors

# From US6203776A, “Method for identifying adrenergic receptor antagonists having good tolerability” (University Technology Corporation, priority 1998, dated 2001)
